Reference: ChEMBL document CHEMBL1275552, “In vitro activities at pH 5.0 and pH 7.0 and in vivo efficacy of flucytosine against Aspergillus fumigatus” (Antimicrob Agents Chemother, 2008)
In brackets after ≈: the same amount, converted by molar mass. Activity calls are given as the source filed them. The rule behind the calls is not given here.

Experiments:
[1] = tested on: Aspergillus fumigatus; assay: Antifungal activity against flucytosine-susceptible Aspergillus fumigatus isolate AZN 58 infected in CD-1 mouse assessed as prolongation of survival at 100 mg/kg administered every 6 hrs; assay type: functional, organism-based; parameters: dose 100 mg/kg
[2] = tested on: Aspergillus fumigatus; assay: Antifungal activity against Aspergillus fumigatus at pH 5.0 by broth microdilution method; assay type: functional
[3] = tested on: Aspergillus sp.; assay: Antifungal activity against Aspergillus sp. by broth microdilution method; assay type: functional
[4] = tested on: Aspergillus fumigatus; assay: Antifungal activity against flucytosine-susceptible Aspergillus fumigatus isolate AZN 58 infected in CD-1 mouse assessed as prolongation of survival at 200 mg/kg administered every 12 hrs; assay type: functional, organism-based; parameters: dose 200 mg/kg
[5] = tested on: Aspergillus fumigatus; assay: Antifungal activity against Aspergillus fumigatus at pH 7.0 by broth microdilution method; assay type: functional
[6] = tested on: Aspergillus fumigatus; assay: Antifungal activity against flucytosine-resistant Aspergillus fumigatus isolate AZN 58 infected in CD-1 mouse at 100 mg/kg administered every 12 hrs; assay type: functional, organism-based; parameters: dose 100 mg/kg
[7] = Half life in CD-1 mouse at 800 mg/kg; assay type: ADME, organism-based; parameters: dose 800 mg/kg; settings: in vivo
[8] = tested on: Aspergillus fumigatus; assay: Antifungal activity against flucytosine-resistant Aspergillus fumigatus isolate AZN 58 infected in CD-1 mouse at 200 mg/kg administered every 12 hrs; assay type: functional, organism-based; parameters: dose 200 mg/kg
[9] = Half life in human; assay type: ADME, organism-based; settings: in vivo
[10] = tested on: Aspergillus fumigatus; assay: Antifungal activity against flucytosine-resistant Aspergillus fumigatus isolate AZN 58 infected in CD-1 mouse at 200 mg/kg administered every 6 hrs; assay type: functional, organism-based; parameters: dose 200 mg/kg
[11] = tested on: Aspergillus fumigatus; assay: Antifungal activity against flucytosine-susceptible Aspergillus fumigatus isolate AZN 58 infected in CD-1 mouse assessed as prolongation of survival at 100 mg/kg administered every 12 hrs; assay type: functional, organism-based; parameters: dose 100 mg/kg
[12] = tested on: Aspergillus fumigatus; assay: Antifungal activity against flucytosine-susceptible Aspergillus fumigatus isolate AZN 58 infected in CD-1 mouse assessed as prolongation of survival at 200 mg/kg administered every 6 hrs; assay type: functional, organism-based; parameters: dose 200 mg/kg
[13] = tested on: Aspergillus fumigatus; assay: Antifungal activity against flucytosine-resistant Aspergillus fumigatus isolate AZN 58 infected in CD-1 mouse at 100 mg/kg administered every 6 hrs; assay type: functional, organism-based; parameters: dose 100 mg/kg

Which results are given for `Nc1nc(=O)[nH]cc1F` [FLUCYTOSINE]?
Activity [1]: Active; MIC [2]: 0.125 µg/mL (≈ 0.968 µM); MIC [3]: > 64 µg/mL; Activity [4]: Active; MIC [5]: 128 µg/mL (≈ 992 µM); Activity [6]: inactive; half-life [7]: 0.5 h; Activity [8]: inactive; half-life [9]: 2.5 h; Activity [10]: inactive; Activity [11]: Active; Activity [12]: Active; Activity [13]: inactive
